Tests used:
Assay in all cases: TMT LC-MSMS of 11-labelled proteins
Assay type in all cases: cell-based
[1] = target: glyceraldehyde-3-phosphate dehydrogenase (GAPDH) (Homo sapiens, UniProt P04406)
[2] = target: Actin, cytoplasmic 1 (ACTB) (Homo sapiens, UniProt P60709)
[3] = target: T1, Isoform 2 of Calcium-binding mitochondrial carrier protein Aralar2 (SLC25A13) (Homo sapiens, UniProt Q9UJS0)
T1 sequence (Q9UJS0 2-676 isoform Q9UJS0-2): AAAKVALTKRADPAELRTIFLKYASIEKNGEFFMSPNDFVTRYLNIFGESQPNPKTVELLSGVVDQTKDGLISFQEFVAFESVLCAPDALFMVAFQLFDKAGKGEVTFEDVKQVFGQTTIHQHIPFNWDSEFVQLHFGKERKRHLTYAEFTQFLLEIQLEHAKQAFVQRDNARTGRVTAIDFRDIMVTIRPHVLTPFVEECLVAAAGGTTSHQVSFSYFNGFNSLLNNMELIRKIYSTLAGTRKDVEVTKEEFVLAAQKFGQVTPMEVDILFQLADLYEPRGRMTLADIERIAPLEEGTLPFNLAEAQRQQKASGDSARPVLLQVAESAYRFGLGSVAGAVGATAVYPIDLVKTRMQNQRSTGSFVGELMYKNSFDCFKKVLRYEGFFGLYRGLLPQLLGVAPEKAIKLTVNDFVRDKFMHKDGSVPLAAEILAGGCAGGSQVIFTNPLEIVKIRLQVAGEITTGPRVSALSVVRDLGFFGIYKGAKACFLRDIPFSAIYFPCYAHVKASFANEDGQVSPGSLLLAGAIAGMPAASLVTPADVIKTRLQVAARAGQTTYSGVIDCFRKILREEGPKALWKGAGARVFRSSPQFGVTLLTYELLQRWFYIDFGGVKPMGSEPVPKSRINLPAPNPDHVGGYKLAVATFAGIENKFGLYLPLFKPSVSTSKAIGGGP

[4] = sheet Exp1, SKBR3 cells, 11 0.5 µM 3 h vs DMSO
[5] = sheet Exp1, SKBR3 cells, 11 0.5 µM 3 h vs with PU-H71 10 µM
[6] = sheet Merged, SKBR3 cells, 11 0.5 µM 3 h vs DMSO
[7] = sheet Merged, SKBR3 cells, 11 0.5 µM 3 h vs with PU-H71 10 µM

Chain of glyceraldehyde-3-phosphate dehydrogenase (GAPDH) (P04406 whole entry): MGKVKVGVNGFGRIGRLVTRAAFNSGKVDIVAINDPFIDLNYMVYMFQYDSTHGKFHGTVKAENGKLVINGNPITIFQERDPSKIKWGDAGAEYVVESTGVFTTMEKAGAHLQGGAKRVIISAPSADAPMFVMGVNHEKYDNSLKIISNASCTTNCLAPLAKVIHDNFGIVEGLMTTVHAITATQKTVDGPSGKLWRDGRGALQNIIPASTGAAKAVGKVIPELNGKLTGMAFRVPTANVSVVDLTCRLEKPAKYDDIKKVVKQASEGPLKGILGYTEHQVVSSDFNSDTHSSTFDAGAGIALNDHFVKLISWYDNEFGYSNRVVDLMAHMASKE

In the case of `CC(=O)Oc1ccc2c(c1)Oc1cc(OC(C)=O)ccc1C21OC(=O)c2cc(C(=O)NCCOCCOCCNC(=O)CCCC(=O)N(CC#N)S(=O)(=O)c3ccc(C(=O)NCCCn4c(Sc5cc6c(cc5I)OCO6)nc5c(N)ncnc54)cc3)ccc21` [compound 11], the “Abundance Ratio: (11) / (11 with PU-H71)” value ([1]; Exp3, GAPDH) is reported as 0.73, the “Abundance Ratio: (11) / (DMSO)” value ([1]; Exp3, GAPDH) is reported as 1.944 and the “Abundances (Grouped): 11” value ([1]; Exp3, GAPDH) is reported as 248.2. For the same compound, the “Abundances (Grouped): 11 with PU-H71” value ([1]; Exp3, GAPDH) was 340, the “Abundance Ratio: (11) / (DMSO)” value [1, 4] was 2.11 and the “Abundance Ratio: (11) / (11 with PU-H71)” value [1, 5] was 0.674. The “Abundance Ratio: (11) / (11 with PU-H71)” value ([1]; sheet Exp2, GAPDH) was 0.789, the “Abundance Ratio: (11) / (DMSO)” value ([1]; sheet Exp2, GAPDH) was 3.189 and the “Abundances (Grouped): 11” value ([1]; sheet Exp2, GAPDH) was 133. The “Abundances (Grouped): 11 with PU-H71” value ([1]; sheet Exp2, GAPDH) was 168.6, the “Abundance Ratio: (11) / (DMSO)” value [1, 6] was 2.267 and the “Abundance Ratio: (11) / (11 with PU-H71)” value [1, 7] was 0.732. The “Abundance Ratio: (11) / (11 with PU-H71)” value ([2]; Exp3, ACTB) was 0.843, the “Abundance Ratio: (11) / (DMSO)” value ([2]; Exp3, ACTB) was 2.666 and the “Abundances (Grouped): 11” value ([2]; Exp3, ACTB) was 445.7. For the same compound, the “Abundances (Grouped): 11 with PU-H71” value ([2]; Exp3, ACTB) was 528.9, the “Abundance Ratio: (11) / (DMSO)” value [2, 4] was 3.266 and the “Abundance Ratio: (11) / (11 with PU-H71)” value [2, 5] was 0.822. The “Abundance Ratio: (11) / (11 with PU-H71)” value ([2]; sheet Exp2, ACTB) was 0.825, the “Abundance Ratio: (11) / (DMSO)” value ([2]; sheet Exp2, ACTB) was 3.623 and the “Abundances (Grouped): 11” value ([2]; sheet Exp2, ACTB) was 493.5. For the same compound, the “Abundances (Grouped): 11 with PU-H71” value ([2]; sheet Exp2, ACTB) was 598.3, the “Abundance Ratio: (11) / (DMSO)” value [2, 6] was 3.272 and the “Abundance Ratio: (11) / (11 with PU-H71)” value [2, 7] was 0.843. For the same compound, the “Abundance Ratio: (11) / (11 with PU-H71)” value ([3]; sheet Exp2, SLC25A13) was 0.894, the “Abundance Ratio: (11) / (DMSO)” value ([3]; sheet Exp2, SLC25A13) was 2.324 and the “Abundances (Grouped): 11” value ([3]; sheet Exp2, SLC25A13) was 24.4. The “Abundances (Grouped): 11 with PU-H71” value ([3]; sheet Exp2, SLC25A13, with PU-H71) was 27.3, the “Abundance Ratio: (11) / (DMSO)” value [3, 6] was 2.324 and the “Abundance Ratio: (11) / (11 with PU-H71)” value [3, 7] was 0.894.

From publication PMC5951806, “Rapid labelling and covalent inhibition of intracellular native proteins using ligand-directed N-acyl-N-alkyl sulfonamide” (Nature Communications, 2018)
